One experiment concerns Pfeiffer cells. Kind of experiment: Cell proliferation test (cell counting kit-8, 6 days). It counts as cell-based. As to conditions: 6 days' growth. How it is done: Cells were harvested by centrifuge and densities were determined using a CounterStar cell counter. Appropriate number of cells were plated in a 96-well culture plate and incubated overnight. Compounds to be tested were 1:3 diluted for 8 gradient points and added into corresponding wells. After 6 days' growth, cell counting kit-8 (Dojindo) was used to detect cell viability and absorbance values were read on Tecan infinite pro.

Experiment [1] concerns the target Recombinant PRC2 (EZH2-Y641F) (Homo sapiens, UniProt Q15910, Y641F). Kind of experiment: In vitro methyltransferase activity test (LANCE Ultra).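 Also: compounds tested as an 8-point threefold dilution series, fluorescence read after 1 h detection step at room temperature, IC50 derived from a four-parameter curve fit.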 To be noted: LANCE Ultra detection, 3 hours reaction.
Method: In Vitro Methyltransferase Activity Test
Recombinant PRC2 (EZH2-Y641F) was purchased from Active motif, S-adenosyl-methionine (SAM) and Poly-L-lysine (PLL) were purchased from Sigma-Aldrich, H3(1-50)K27mel polypeptide was purchased from Cisbio. LANCEUltra system (Perkinelmer) was used for detection. In the enzyme activity test, a compound to be tested was 1:3 diluted for 8 gradient points, added into a reaction plate, and then added 100 ng recombinant enzyme. And then a buffer [20 mM Tris pH8.5, 2 mM MgCl2, 0.01% Tween-20, 1 mM TCEP] containing 2.5 M SAM/250 nM H3(1-50)K27mel premixture was added to conduct an enzyme reaction at room tempreture. After reacted for 3 hours, a dection solution containing premixed PLL, detection antibody and Ulight was added, reacted for 1 h at RT, then fluorescence was read on Tecan infinite pro. IC50s were calculated by four-factor model fitting in a XLfit software.
[2] abbreviates: EZH2 Y641F IC50, Recombinant PRC2 (EZH2-Y641F).
[3] abbreviates: read-out: EZH2 Y641F IC50, Recombinant PRC2 (EZH2-Y641F).

Where two headings read alike, the source gives them in different places.

Sequence of Recombinant PRC2 (EZH2-Y641F) (Q15910 whole entry Y641F): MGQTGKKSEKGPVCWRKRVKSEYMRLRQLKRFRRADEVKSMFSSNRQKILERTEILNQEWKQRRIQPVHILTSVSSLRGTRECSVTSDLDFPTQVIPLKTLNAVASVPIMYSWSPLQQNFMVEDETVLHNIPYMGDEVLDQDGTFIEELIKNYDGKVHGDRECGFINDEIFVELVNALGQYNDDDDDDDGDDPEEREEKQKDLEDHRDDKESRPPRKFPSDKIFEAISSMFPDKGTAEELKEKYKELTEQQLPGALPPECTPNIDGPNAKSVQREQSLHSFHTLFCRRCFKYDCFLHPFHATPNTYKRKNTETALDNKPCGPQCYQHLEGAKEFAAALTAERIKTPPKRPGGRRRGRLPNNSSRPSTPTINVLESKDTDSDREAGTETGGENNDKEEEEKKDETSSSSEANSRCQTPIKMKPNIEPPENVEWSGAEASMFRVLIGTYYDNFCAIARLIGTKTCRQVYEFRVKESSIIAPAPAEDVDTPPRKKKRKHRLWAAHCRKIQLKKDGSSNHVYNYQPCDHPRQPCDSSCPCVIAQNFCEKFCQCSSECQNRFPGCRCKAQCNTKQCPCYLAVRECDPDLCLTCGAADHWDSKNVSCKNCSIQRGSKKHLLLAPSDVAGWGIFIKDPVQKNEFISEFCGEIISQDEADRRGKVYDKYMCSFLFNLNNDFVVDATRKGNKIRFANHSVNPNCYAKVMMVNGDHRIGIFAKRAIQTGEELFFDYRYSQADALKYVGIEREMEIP
Sequence of Recombinant PRC2 (EZH2-Y641F) (O75530 whole entry partner): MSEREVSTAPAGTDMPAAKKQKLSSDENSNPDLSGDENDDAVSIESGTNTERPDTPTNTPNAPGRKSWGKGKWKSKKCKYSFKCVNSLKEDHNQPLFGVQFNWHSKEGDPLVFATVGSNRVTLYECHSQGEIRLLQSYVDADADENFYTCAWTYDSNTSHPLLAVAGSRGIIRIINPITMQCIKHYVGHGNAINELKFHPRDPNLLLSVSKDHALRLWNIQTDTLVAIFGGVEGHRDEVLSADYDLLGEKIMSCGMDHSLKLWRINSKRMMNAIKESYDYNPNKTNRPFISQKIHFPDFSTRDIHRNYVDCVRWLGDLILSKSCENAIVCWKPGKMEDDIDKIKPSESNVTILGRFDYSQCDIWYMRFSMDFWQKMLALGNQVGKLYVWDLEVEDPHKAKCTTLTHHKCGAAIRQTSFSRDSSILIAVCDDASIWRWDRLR
Sequence of Recombinant PRC2 (EZH2-Y641F) (Q15022 whole entry partner): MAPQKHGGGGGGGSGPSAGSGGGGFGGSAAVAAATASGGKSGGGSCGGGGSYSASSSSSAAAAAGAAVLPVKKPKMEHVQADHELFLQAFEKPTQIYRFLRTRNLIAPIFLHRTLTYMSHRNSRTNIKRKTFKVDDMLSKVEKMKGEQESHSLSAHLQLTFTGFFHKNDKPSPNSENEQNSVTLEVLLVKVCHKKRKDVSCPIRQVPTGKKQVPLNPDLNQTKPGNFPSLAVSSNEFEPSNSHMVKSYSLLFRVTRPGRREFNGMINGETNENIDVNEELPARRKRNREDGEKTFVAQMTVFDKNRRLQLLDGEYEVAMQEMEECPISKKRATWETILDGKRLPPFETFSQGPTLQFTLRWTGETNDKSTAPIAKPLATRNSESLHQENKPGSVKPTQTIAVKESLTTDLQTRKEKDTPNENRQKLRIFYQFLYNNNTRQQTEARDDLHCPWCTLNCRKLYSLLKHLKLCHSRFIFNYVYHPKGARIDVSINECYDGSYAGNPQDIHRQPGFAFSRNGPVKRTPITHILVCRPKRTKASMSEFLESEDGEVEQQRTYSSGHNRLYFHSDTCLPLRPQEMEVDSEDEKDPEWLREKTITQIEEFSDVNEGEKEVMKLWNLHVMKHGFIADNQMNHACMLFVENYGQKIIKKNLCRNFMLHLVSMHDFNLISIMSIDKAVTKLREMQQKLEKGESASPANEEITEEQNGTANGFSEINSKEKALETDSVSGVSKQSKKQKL
Sequence of Recombinant PRC2 (EZH2-Y641F) (Q09028 whole entry partner): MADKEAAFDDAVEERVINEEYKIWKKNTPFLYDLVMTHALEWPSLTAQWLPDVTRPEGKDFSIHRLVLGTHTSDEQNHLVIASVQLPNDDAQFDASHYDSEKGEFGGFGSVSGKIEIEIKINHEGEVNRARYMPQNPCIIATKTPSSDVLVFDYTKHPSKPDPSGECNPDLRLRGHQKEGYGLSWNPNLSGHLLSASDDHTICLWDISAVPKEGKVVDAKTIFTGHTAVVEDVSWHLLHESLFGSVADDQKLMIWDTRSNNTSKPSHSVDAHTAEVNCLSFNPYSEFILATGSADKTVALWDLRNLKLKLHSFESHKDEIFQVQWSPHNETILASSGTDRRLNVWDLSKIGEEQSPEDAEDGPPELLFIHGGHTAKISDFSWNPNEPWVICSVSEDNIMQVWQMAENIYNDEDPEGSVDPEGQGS
Sequence of Recombinant PRC2 (EZH2-Y641F) (Q6ZN18 whole entry partner): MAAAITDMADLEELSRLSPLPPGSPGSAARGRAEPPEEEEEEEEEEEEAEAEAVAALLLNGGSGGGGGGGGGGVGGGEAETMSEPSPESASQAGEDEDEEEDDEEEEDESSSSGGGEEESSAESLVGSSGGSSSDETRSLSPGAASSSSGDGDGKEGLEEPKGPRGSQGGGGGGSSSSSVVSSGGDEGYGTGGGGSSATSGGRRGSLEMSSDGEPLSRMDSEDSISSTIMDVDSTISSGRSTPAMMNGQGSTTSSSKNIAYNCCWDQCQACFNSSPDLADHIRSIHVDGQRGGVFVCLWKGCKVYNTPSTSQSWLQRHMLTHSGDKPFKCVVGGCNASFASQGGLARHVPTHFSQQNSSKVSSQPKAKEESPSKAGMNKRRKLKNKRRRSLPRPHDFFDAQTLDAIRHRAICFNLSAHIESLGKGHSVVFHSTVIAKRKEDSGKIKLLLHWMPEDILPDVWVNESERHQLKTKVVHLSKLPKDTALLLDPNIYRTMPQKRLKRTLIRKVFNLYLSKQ

On to `CCN(c1cc(-c2cnc(CN3CCOCC3)nc2)cc2c(NCc3c(C)cc(C)[nH]c3=O)nccc12)C1CCOCC1` [Compound Z-121], for which the IC50 in the experiment on Pfeiffer cells (Homo sapiens, Pfeiffer, 144 h) was 646 nM; in experiment [1] (setting [2]), 474 nM.

On to `CCN(c1cc(-c2cnc(CN3CCOCC3)c(F)c2)cc2c(NCc3c(C)cc(C)[nH]c3=O)nccc12)C1CCOCC1` [Compound Z-122], for which the IC50 in the experiment on Pfeiffer cells (Homo sapiens, Pfeiffer, 144 h) stood at 833 nM; in experiment [1] (setting [2]) it was 439 nM.

As for `CCN(c1cc(-c2cncc(F)c2)cc2c(NCc3c(C)cc(C)[nH]c3=O)nccc12)C1CCN(C(C)C)CC1` [Compound Z-125], the IC50 in the experiment with Pfeiffer cells (Homo sapiens, Pfeiffer, 144 h) amounted to 772 nM; in experiment [1] (setting [2]) it was 22 nM.

`CCN(c1cc(-c2ccccn2)cc2c(NCc3c(C)cc(C)[nH]c3=O)nccc12)C1CCN(C(C)C)CC1` [Compound Z-126]: the concentration for half-maximal inhibition (IC50) was found to be 765 nM in the experiment on Pfeiffer cells (Homo sapiens, Pfeiffer, 144 h) and 156 nM in experiment [1] (setting [2]).

`CCN(c1cc(Cl)cc2c(NCc3c(C)cc(C)[nH]c3=O)nccc12)C1CCC(N(C)C)CC1` (stereo not drawn) [Compound Z-132]: the IC50 with Pfeiffer cells is 301 nM; in experiment [1] (setting [3]) it was 107 nM.

Take `CCN(c1cc(Cl)cc2c(NCc3c(C)cc(C)[nH]c3=O)nccc12)[C@H]1CC[C@@H](N(C)C)CC1` [Compound Z-136]: the IC50 came to 465 nM in the experiment on Pfeiffer cells (Homo sapiens, Pfeiffer, 144 h) and 49 nM in experiment [1] (setting [2]).

In the case of `CCN(c1cc(C#CCN2CCOCC2)cc2c(NCc3c(C)cc(C)[nH]c3=O)nccc12)C1CCC(N(C)C)CC1` (stereo not drawn) [Compound Z-177], the half-inhibitory concentration (IC50) was 444 nM in the experiment on Pfeiffer cells (Homo sapiens, Pfeiffer, 144 h) and 31 nM in experiment [1] (setting [2]).

For `CCN(c1cc(C#CCN2CCOCC2)cc2c(NCc3c(C)cc(C)[nH]c3=O)nccc12)[C@H]1CC[C@@H](N(C)C)CC1` [Compound Z-179], the figures for the IC50 (in the experiment on Pfeiffer cells; in experiment [1] (setting [3])) were 540 nM and 15 nM, respectively.

Turning to `CCN(c1cc(C#CCN2CCN(C)CC2)cc2c(NCc3c(C)cc(C)[nH]c3=O)nccc12)C1CCC(N(C)C)CC1` (stereo not drawn) [Compound Z-180], the concentration for half-maximal inhibition (IC50) in the experiment with Pfeiffer cells (Homo sapiens, Pfeiffer, 144 h) is 380 nM; in experiment [1] (setting [2]) it was 13 nM.

With `CCN(c1cc(N(C)c2cccnc2)cc2c(NCc3c(C)cc(C)[nH]c3=O)nccc12)[C@H]1CC[C@H](N(C)C)CC1` [Compound Z-183], the IC50 in the experiment with Pfeiffer cells (Homo sapiens, Pfeiffer, 144 h) worked out at 395 nM; in experiment [1] (setting [2]) it was 128 nM.

Take `CCN(c1cc(N(C)c2cccnc2)cc2c(NCc3c(C)cc(C)[nH]c3=O)nccc12)C1CCC(N(C)C)CC1` (stereo not drawn) [Compound Z-186]: the 50% inhibitory concentration (IC50) came out at 251 nM with Pfeiffer cells (Homo sapiens, Pfeiffer, 144 h) and 67 nM in experiment [1] (setting [2]).

For the compound `CCN(c1cc(-c2cnc(N3CCOCC3)nc2)cc2c(NCc3c(OC)cc(C)[nH]c3=O)nccc12)C1CCC(N(C)C)CC1` (stereo not drawn) [Compound Z-192], the IC50 stood at 393 nM with Pfeiffer cells (Homo sapiens, Pfeiffer, 144 h) and 42 nM in experiment [1] (setting [2]).

With `CCN(c1cc(-c2ccc(N3CCN(C)CC3)nc2)cc2c(NCc3c(OC)cc(C)[nH]c3=O)nccc12)C1CCC(N(C)C)CC1` (stereo not drawn) [Compound Z-193], the IC50 with Pfeiffer cells (Homo sapiens, Pfeiffer, 144 h) was found to be 620 nM; in experiment [1] (setting [2]), 21 nM.

With `CCN(c1cc(-c2ccc(CN3CCN(C)CC3)nc2)cc2c(NCc3c(C)cc(C)[nH]c3=O)nccc12)C1CCC(O)CC1` (stereo not drawn) [Compound Z-196], the half-inhibitory concentration (IC50) turned out to be 583 nM with Pfeiffer cells (Homo sapiens, Pfeiffer, 144 h) and 16 nM in experiment [1] (setting [2]).

For the compound `CCN(c1cc(Cl)cc2c(NCc3c(OC)cc(C)[nH]c3=O)nccc12)C1CCC(N(C)C)CC1` (stereo not drawn) [Compound Z-197], the IC50 with Pfeiffer cells (Homo sapiens, Pfeiffer, 144 h) amounted to 371 nM; in experiment [1] (setting [2]) it was 51 nM.

Regarding `CCN(c1cc(Cl)cc2c(NCc3c(C)cc(C)[nH]c3=O)nccc12)C1CCNCC1` [Compound Z-201], the IC50 in the experiment with Pfeiffer cells (Homo sapiens, Pfeiffer, 144 h) was found to be 133 nM; in experiment [1] (setting [2]) it was 59 nM.

For `CCN(c1cc(OCCOC)cc2c(NCc3c(C)cc(C)[nH]c3=O)nccc12)C1CCC(N(C)C)CC1` (stereo not drawn) [Compound Z-206], the half-maximal inhibitory concentration (IC50) with Pfeiffer cells (Homo sapiens, Pfeiffer, 144 h) was 234 nM; in experiment [1] (setting [2]), 115 nM.

With `CCN(c1cc(Cl)cc2c(NCc3c(OC)cc(C)[nH]c3=O)nccc12)C1CCNCC1` [Compound Z-208], the IC50 came to 155 nM in the experiment with Pfeiffer cells (Homo sapiens, Pfeiffer, 144 h) and 9 nM in experiment [1] (setting [2]).

On to `CCN(c1cc(Cl)cc2c(NCc3c(C)cc(C)[nH]c3=O)nccc12)C1CC2CCC(C1)N2` (stereo not drawn) [Compound Z-209], for which the IC50 with Pfeiffer cells (Homo sapiens, Pfeiffer, 144 h) amounted to 250 nM; in experiment [1] (setting [2]), 10 nM.

Turning to `CCN(c1c(F)c(-c2ccc(N3CCN(C)CC3)nc2)cc2c(NCc3c(C)cc(C)[nH]c3=O)nccc12)C1CCC(N(C)C)CC1` (stereo not drawn) [Compound Z-218, 3-((5-((4-(dimethylamino)cyclohexyl) (ethyl)amino)-6-fluoro-7-(6-(4-methylpiperazin-1-yl)pyridin-3-yl)isoquinolin-1-ylamino)methyl)-4,6-dimethyl-2(1H)-one], the IC50 with Pfeiffer cells (Homo sapiens, Pfeiffer, 144 h) was found to be 212 nM; in experiment [1] (setting [2]), 28 nM.

As to `CCN(c1cc(-c2ccc(N3CCN(C)CC3)nc2)cc2c(NCc3c(C)cc(C)[nH]c3=O)nccc12)C1CCNC(C)C1` (stereo not drawn) [Compound Z-220, 3-((5-(ethyl (2-methylpiperidin-4-yl)amino)-7-(6-(4-methylpiperazin-1-yl)pyridin-3-yl)isoquinolin-1-ylamino)methyl)-4,6-dimethylpyridine-2(1H)-one], the IC50 with Pfeiffer cells (Homo sapiens, Pfeiffer, 144 h) amounted to 651 nM; in experiment [1] (setting [2]) it was 31 nM.

For the compound `CCOc1cc(N(CC)C2CCC(N(C)C)CC2)c2ccnc(NCc3c(C)cc(C)[nH]c3=O)c2n1` (stereo not drawn) [Compound Z-222, 3-((4-((4-(dimethylamino)cyclohexyl) (ethyl)amino)-2-ethoxy-1,7-naphthyridin-8-ylamino)methyl)-4,6-dimethyl-2(1H)-one], the IC50 in the experiment with Pfeiffer cells (Homo sapiens, Pfeiffer, 144 h) was 484 nM; in experiment [1] (setting [2]) it was 143 nM.

With `CCN(c1c(F)c(-c2ccc(N3CCN(C)CC3)nc2)cc2c(NCc3c(C)cc(C)[nH]c3=O)nccc12)C1CCOCC1` [Compound Z-224, 3-((5-(ethyl(tetrahydro-2H-pyran-4-yl)amino)-6-fluoro-7-(6-(4-methylpiperazin-1-yl)pyridin-3-yl)isoquinolin-1-ylamino)methyl)-4,6-dimethyl-2(1H)-one], the half-inhibitory concentration (IC50) with Pfeiffer cells (Homo sapiens, Pfeiffer, 144 h) is 605 nM; in experiment [1] (setting [2]) it was 360 nM.

For `CCN(c1c(F)c(-c2ccc(N3CCN(C)CC3)nc2)cc2c(NCc3c(C)cc(C)nc3O)nccc12)[C@H]1CC[C@H](N(C)C)CC1` [Compound Z-232, 3-((5-(((1R,4R)-4-(dimethylamino)cyclohexyl) (ethyl)amino)-6-fluoro-7-(6-(4-methylpiperazin-1-yl)pyridin-3-yl)isoquinolin-1-ylamino)methyl)-4,6-dimethyl-2(1H)-one], the 50% inhibitory concentration (IC50) in the experiment with Pfeiffer cells (Homo sapiens, Pfeiffer, 144 h) came out at 188 nM; in experiment [1] (setting [2]), 26 nM.

Values taken from patent publication US20200262813A1, “1,5,7-TRISUBSTITUTED ISOQUINOLINE DERIVATIVES, PREPARATION THEREOF, AND USE THEREOF IN MEDICINES” (SHANGHAI HAIYAN PHARMACEUTICAL TECHNOLOGY CO., LTD., priority 2016, published 2020).
